# Test results from patent publication US8388944B2, “Inactivating organisms using carbon dioxide at or near its supercritical pressure and temperature conditions” (Novasterilis Inc., priority 2003, dated 2013).
# Where a name gives a salt, the structure may show the parent alone.
# What was measured:
# [1] = system: B. stearothermophilus spores; experiment: Inactivation of B. stearothermophilus spores, CFU counted after serial dilution and culturing; type: cell-based; details: for CFU/mL after treatment: start 2.3×10^6 CFU/mL
# From the text: The effects of using an additive in accordance with the present invention was compared using the process described by U.S. Pat. No. 6,149,864 to Dillow et al. for inactivating B. stearothermophilus spores. […] In contrast, 6.4-log inactivation (i.e., 2.3×10^6 CFU/mL to undetectable) was achieved using the process of the present invention (i.e., 1100 psi to 3000 psi with random and directional agitation, and including TFA as the chemical additive). The chemical additive was placed on a cotton ball and inserted in the chamber prior to closure. No further chemical additive was used.
# The apparatus generally depicted in FIG. 1 was employed. A sample of B. stearothermophilus spores (1 mL) of greater than 10^6 CFU/mL was placed in 16 mm diameter test tubes in a stainless steel basket. Trifluoroacetic acid (4 mL) was transferred by syringe onto the surface of a cotton ball placed in the basket and water (6 mL) was placed at bottom of vessel. The basket was then loaded into the 600 mL reactor vessel. The reactor vessel was heated to 50° C. and equilibrated with CO2 at atmospheric pressure. The stirring and agitation mechanisms were activated and the reactor vessel pressurized to […] for 40 minutes. The CO2 pressure was then allowed to drop to 1100 psi at a rate of 300 psi/minute. Agitation by means of vibration of the vessel was carried out for 1 minute.
# The pressurization/stirring/agitation/depressurization process was repeated a total of three times. After the third cycle, a series of three flushing cycles to remove the additive was performed by pressurizing and partial depressurizing the reactor vessel using CO2. The stirring was stopped and the basket was removed from the reactor vessel. Any remaining CFU were counted after serial dilution and culturing of both treated and untreated controls.
# [2] = system: B. subtilis spore and vegetative forms; experiment: Inactivation of B. subtilis spore and vegetative forms, CFU counted after serial dilution and culturing; type: cell-based, Bacillus subtilis
# Procedure: The reactor vessel was heated to 50° C. and equilibrated with CO2 at atmospheric pressure. The stirring and agitation mechanisms were activated and the reactor vessel pressurized to 3000 psi for 40 minutes. The CO2 pressure was then allowed to drop to 1500 psi at a rate of 300 psi/minute. Agitation was carried out for 1 minute.
# The loop was sealed and pressurized to 3000 psi.
# The stirring was stopped and the basket was removed from the reactor vessel.
# The reactor vessel was heated to 50° C. and equilibrated with CO2 at atmospheric pressure. […] The CO2 pressure was then allowed to drop to 1500 psi at a rate of 300 psi/minute.
# B. subtilis spore forms = details: process disclosed in the Dillow '864 patent, other investigators [27]; cited from earlier work
# Staphylococcus aureus = experiment: Inactivation of bacteria by supercritical carbon dioxide; type: cell-based; details: 40° C., 2973 psi to 1500 psi, six cycles over 4 hours
# From the text: (§1) Maintaining the natural presentation environment for a given antigen generally enhances the protective qualities of a given vaccine. Ghost vaccine preparations result in empty bacterial shells that are intact except for holes produced by the lysis gene product when viewed by scanning electron microscopy (SEM). In contrast, organisms inactivated by supercritical carbon dioxide have intact cell walls (i.e., no lysis holes) and are not empty (i.e., the cytosolic contents are retained). Staphylococcus aureus and Pseudomonas aeruginosa were inactivated by at least 6-log with supercritical carbon dioxide at 40° C. and 2973 psi to 1500 psi for a total of six cycles over 4 hours. Escherichia coli was inactivated by at least 6-log with supercritical carbon dioxide at 34° C. and 2973 psi to 1500 psi for a total of three cycles over 0.5 hours.
# Pseudomonas aeruginosa = experiment: as above; type: cell-based; details: 40° C., 2973 psi to 1500 psi, six cycles over 4 hours
# From the text: as §1
# Escherichia coli = experiment: as above; type: cell-based; details: 34° C., 2973 psi to 1500 psi, three cycles over 0.5 hours
# From the text: as §1
# Salmonella typhimurium = experiment: Inactivation of S. typhimurium, serial dilutions and colony counts; type: cell-based; details: Example 8: no chemical additive, water 1 vol. %, 35° C., 1500 psi constant for 15 minutes, greater than 10^9 CFU/mL
# Procedure: A sample of Salmonella typhimurium (5 mL), […], of greater than 10^9 CFU/mL was placed into 16 mm test tubes in a stainless steel basket. Water was added on a cotton ball to the vessel at 1% of the total volume (1 vol. %) of the vessel. No chemical additive was placed in the vessel. The reactor vessel was heated to 35° C. and equilibrated with CO2 at atmospheric pressure. The stirring and agitation mechanisms were activated and vessel pressurized to 1500 psi and held constant for 15 minutes. The vessel was then depressurized and the contents removed for analysis. Quantitative analysis of any remaining Salmonella typhimurium in treated sample vs. untreated control was enumerated though serial dilutions and colony counts.
structure (smiles),measurement,setting,value
"O=C(O)C(F)(F)F [TFA, trifluoroacetic acid]",log inactivation,"[1]; TFA as chemical additive in supercritical CO2, 1100 psi to 3000 psi, random and directional agitation",6.4 log
same,CFU/mL after treatment,"[1]; TFA as chemical additive in supercritical CO2, 1100 psi to 3000 psi",undetectable
"CC(=O)O [Acetic acid, acetic acid]",kill of B. subtilis present,"[2]; Example 3B: as Example 3A, samples of less than 10^6 CFU/ml",total kill
same,log reduction in CFU extrapolated for greater than 10^6 CFU/ml,[2]; Example 3B: extrapolated from total kill of samples below 10^6 CFU/ml,6 log
same,log reduction,"[2]; Example 7: acetic acid 6 mL then 4 mL per cycle in CO2, 50° C., 3000 psi 40 minutes to 1500 psi, three cycles",at least 6 log
"O=C=O [supercritical carbon dioxide, carbon dioxide]",log inactivation,"[1]; no chemical additive, Dillow '864 conditions, three cycles of 60° C. for two hours, 1500 psi to 3000 psi, random agitation",1.0 log
same,CFU/mL after treatment,"[1]; no chemical additive, three cycles of 60° C. for two hours, 1500 psi to 3000 psi",2.1×10^5 CFU/mL
same,log reduction in B. subtilis spore forms,B. subtilis spore forms,3.5 log
same,log inactivation,Staphylococcus aureus,at least 6 log
same,log inactivation,Pseudomonas aeruginosa,at least 6 log
same,log inactivation,Escherichia coli,at least 6 log
same,log reduction,Salmonella typhimurium,9 log
